The record followed here is ChEMBL document CHEMBL5241054, “Effective anti-aromatase therapy to battle against estrogen-mediated breast cancer: Comparative SAR/QSAR assessment on steroidal aromatase inhibitors” (Eur J Med Chem, 2020).

Usually IC50 stands for the concentration that inhibits the measured activity by half.

The assay concerns the target T1, Aromatase (Homo sapiens, UniProt P11511).
T1 sequence (P11511 whole entry): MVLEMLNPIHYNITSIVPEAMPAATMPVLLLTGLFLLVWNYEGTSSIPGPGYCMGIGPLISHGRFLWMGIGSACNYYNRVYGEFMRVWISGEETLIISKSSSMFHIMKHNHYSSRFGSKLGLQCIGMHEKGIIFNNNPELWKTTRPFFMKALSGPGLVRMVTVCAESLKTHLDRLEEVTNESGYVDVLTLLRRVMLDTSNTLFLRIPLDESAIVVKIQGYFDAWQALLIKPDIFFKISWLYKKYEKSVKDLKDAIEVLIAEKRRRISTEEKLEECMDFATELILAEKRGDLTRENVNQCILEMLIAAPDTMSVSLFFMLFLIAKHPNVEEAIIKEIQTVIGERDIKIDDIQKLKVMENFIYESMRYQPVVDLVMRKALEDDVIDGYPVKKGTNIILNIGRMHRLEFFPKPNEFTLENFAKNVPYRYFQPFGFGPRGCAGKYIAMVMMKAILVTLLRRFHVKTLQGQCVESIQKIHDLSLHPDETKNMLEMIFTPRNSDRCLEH
Consider `CCCCCCCC1=C[C@@]2(C)C(=CC1=O)CC[C@@H]1[C@@H]2CC[C@]2(C)C(=O)CC[C@@H]12`, for which the midpoint of inhibition, the IC50, lay at 0.605 µM.

As to `C[C@]12CCC(=O)C=C1[C@@H](CCc1ccccc1)C[C@@H]1[C@@H]2CC[C@]2(C)C(=O)CC[C@@H]12`, the IC50 is 140 µM.

`CC[C@]12CCC(=O)C=C1C=C[C@@H]1[C@@H]2CC[C@]2(C)C(=O)CC[C@@H]12` gave a half-inhibitory concentration (IC50) of 0.3 µM. This IC50 lies about 470-fold lower than the previous one.

On to `CC(=O)OC[C@]12CCCC=C1CC[C@@H]1[C@@H]2CC[C@]2(C)C(O)CC[C@@H]12` (stereo partly drawn), for which the midpoint of inhibition, the IC50, lay at 44 µM.

Compound `C[C@H]1C[C@@H]2[C@H](CC[C@]3(C)[C@@H](O)CC[C@@H]23)c2ccc(O)cc21` had a concentration for half-maximal inhibition (IC50) of 19 µM.

Compound `C[C@]12CCC(=O)C(Sc3ccccc3)=C1CC[C@@H]1[C@@H]2CC[C@]2(C)C(=O)CC[C@@H]12` had an IC50 of 0.18 µM.

For the compound `C[C@]12C=CC(=O)C=C1[C@H](CCCCCc1ccccc1)C[C@@H]1[C@@H]2CC[C@]2(C)C(=O)CC[C@@H]12`, the midpoint of inhibition, the IC50, lay at 0.1 µM.

Take `C[C@]12CCC=CC1=CC[C@@H]1[C@@H]2CC[C@]2(C)C(=O)CC[C@@H]12`: inhibition was half-maximal at 0.34 µM (IC50). This IC50 is about 3.4-fold higher than that of the compound before.

Compound `C[C@]12CC[C@H]3[C@@H](CCC4=CCCC[C@@]43C)[C@@H]1C[C@@H](O)[C@@H]2O` had an IC50 of 700 µM. Against the preceding compound, the IC50 is about 2100-fold higher.

As to `C[C@]12CCC(=O)C=C1C(CCCc1ccccc1)=C[C@@H]1[C@@H]2CC[C@]2(C)C(=O)CC[C@@H]12`, the IC50 is 0.25 µM.

As to `C[C@]12CC[C@H]3[C@@H](CC(=O)C4=CCCC[C@@]43CO)[C@@H]1CC[C@@H]2O`, the half-maximal inhibitory concentration (IC50) is 25 µM.

`CCCC[C@@H]1C[C@@H]2[C@H](CC[C@]3(C)[C@@H](O)CC[C@@H]23)c2ccc(O)cc21` returned an IC50 of 44 µM.

`COC1=C2C=C[C@@H]3[C@H](CC[C@]4(C)C(=O)CC[C@@H]34)[C@@]2(C)CCC1=O` had a 50% inhibitory concentration (IC50) of 11 µM.

`CC[C@H]1C[C@@H]2[C@H](CC[C@]3(C)C(=O)CC[C@@H]23)[C@@]2(C)CCC(=O)C=C12` showed a concentration for half-maximal inhibition (IC50) of 0.26 µM. Against the preceding compound, the IC50 is about 42-fold lower.

`C[C@]12CCC(=O)C=C1C1C([C@@H]3[C@@H]2CC[C@]2(C)C(=O)CC[C@@H]32)C1(F)F` (stereo partly drawn) showed an IC50 of 0.889 µM.

In turn, `CC(=O)O[C@@H]1C[C@@H]2[C@H](CC[C@]3(C)C(=O)CC[C@@H]23)[C@@]2(C)CCCC=C12` had an IC50 of 0.12 µM.

With `C[C@]12CC[C@H]3[C@@H](CCC4=CC(=O)CC[C@@]43CBr)[C@@H]1CCC2=O`, the IC50 is 1.4 µM.

`C[C@]12CC[C@@H]3c4ccc(O)c(C=O)c4CC[C@H]3[C@@H]1CC[C@@H]2O`: the concentration for half-maximal inhibition (IC50) is 28.3 µM. Compared with the last compound, the IC50 is about 20-fold higher.

`CCCCCC[C@@H]1C[C@@H]2[C@H](CC[C@]3(C)C(=O)CC[C@@H]23)[C@@]2(C)C=CC(=O)C=C12` showed a 50% inhibitory concentration (IC50) of 0.076 µM. Compared with the last compound, the IC50 is about 370-fold lower.

As to `CCCC1=C[C@@H]2[C@H](CC[C@]3(C)C(=O)CC[C@@H]23)[C@@]2(C)C=CC(=O)C=C12`, the IC50 is 0.1 µM.

`CC(=O)OC1C[C@@]2(C)C(=CC1=O)C(=O)C[C@@H]1[C@@H]2CC[C@]2(C)C(=O)CC[C@@H]12` (stereo partly drawn): the concentration for half-maximal inhibition (IC50) is 24 µM. This IC50 lies about 240-fold higher than the previous one.

Consider `C[C@]12CCC(=O)C(O)=C1C(=O)C[C@@H]1[C@@H]2CC[C@]2(C)C(=O)CC[C@@H]12`, for which the midpoint of inhibition, the IC50, lay at 0.46 µM. Against the preceding compound, the IC50 is about 52-fold lower.

`CCCCCCC1=C[C@@]2(C)C(=CC1=O)CC[C@@H]1[C@@H]2CC[C@]2(C)C(=O)CC[C@@H]12` showed an IC50 of 0.298 µM.

On to `C[C@]12CCCC=C1C(=O)C[C@@H]1[C@@H]2CC[C@]2(C)C(=O)CC[C@@H]12`, for which the IC50 is 0.165 µM.

In the case of `CO[C@@H]1C[C@@H]2[C@H](CC[C@]3(C)C(=O)CC[C@@H]23)[C@@]2(C)CCCC=C12`, the IC50 was 0.05 µM.

`COc1cc2c(cc1O)CC[C@@H]1[C@@H]2CC[C@]2(C)C(=O)CC[C@@H]12` had an IC50 of 17 µM.

As for `C[C@]12CCC(=O)C=C1C(Cc1ccccc1)=C[C@@H]1[C@@H]2CC[C@]2(C)C(=O)CC[C@@H]12`, 0.078 µM corresponded to half-maximal inhibition (IC50).

Compound `CC(=O)O[C@@H]1CCC[C@@]2(CO)C1=CC[C@@H]1[C@@H]2CC[C@]2(C)C(=O)CC[C@@H]12` had an IC50 of 11 µM.

In turn, `C[C@]12CCC=CC1=CC(=O)[C@@H]1[C@@H]2CC[C@]2(C)C(O)CC[C@@H]12` (stereo partly drawn) showed an IC50 of 42 µM.

As for `C[C@]12CCC3[C@@H](CC(=O)[C@]45O[C@H]4CCC[C@]35C=O)C1CCC2=O` (stereo partly drawn), the half-inhibitory concentration (IC50) was 150 µM.

For `CCCCCC[C@H]1C[C@@H]2[C@H](CC[C@]3(C)C(=O)CC[C@@H]23)[C@@]2(C)CCC(=O)C=C12`, the IC50 is 1 µM.

`C[C@]12CC[C@@H]3c4ccc(O)cc4[C@@H](c4ccccc4)C[C@H]3[C@@H]1CC[C@@H]2O` had an IC50 of 129 µM.

Regarding `C[C@]12CCC[C@H](O)C1=CC(=O)[C@@H]1[C@@H]2CC[C@]2(C)C(=O)CC[C@@H]12`, the IC50 was 6.3 µM.

The compound `C[C@]12CCCC=C1[C@H]1C[C@H]1[C@@H]1[C@@H]2CC[C@]2(C)C(=O)CC[C@@H]12` had a half-maximal inhibitory concentration (IC50) of 0.15 µM.

For `C[C@]12CC[C@H]3[C@@H](C(=O)C=C4C=CCC[C@@]43C=O)[C@@H]1CCC2=O`, the half-inhibitory concentration (IC50) is 11 µM.

The compound `C[C@]12CCC(=O)c3nn(Cc4cccc([N+](=O)[O-])c4)c(c31)C[C@@H]1[C@@H]2CC[C@]2(C)C(=O)CC[C@@H]12` had an IC50 of 0.49 µM.

Regarding `C[C@@H]1C[C@@H]2[C@H](CC[C@]3(C)C(=O)CC[C@@H]23)[C@@]2(C)CCCC=C12`, the IC50 is 0.049 µM.

Regarding `C[C@]12CCC(=O)c3nn(Cc4ccccc4)c(c31)C[C@@H]1[C@@H]2CC[C@]2(C)C(=O)CC[C@@H]12`, the midpoint of inhibition, the IC50, lay at 0.245 µM.

The compound `C[C@]12CC[C@H]3[C@@H](C[C@H]4O[C@]45C(=O)CCC[C@]35C=O)C1CCC2=O` (stereo partly drawn) showed a half-inhibitory concentration (IC50) of 210 µM.

Turning to `CCC[C@]12CCC(=O)C=C1CC[C@@H]1[C@@H]2CC[C@]2(C)C(=O)CC[C@@H]12`, half-maximal inhibition (IC50) was put at 100 µM.

For the compound `C[C@]12CCC(=O)C=C1[C@@H](CCCCc1ccccc1)C[C@@H]1[C@@H]2CC[C@]2(C)C(=O)CC[C@@H]12`, the IC50 was 340 µM.

In the case of `C[C@]12CC[C@H]3[C@@H](CCC4=CC(=O)CC[C@@]43C#N)[C@@H]1CCC2=O`, the IC50 was 25 µM. Compared with the last compound, the IC50 is about 14-fold lower.

Consider `CCCCCC[C@H]1C[C@@H]2[C@H](CC[C@]3(C)C(=O)CC[C@@H]23)[C@@]2(C)C=CC(=O)C=C12`, for which the half-inhibitory concentration (IC50) was 0.28 µM.

`C[C@]12CCCC=C1CC[C@@H]1[C@@H]2CC[C@]2(C)C(=O)[C@@H](Br)C[C@@H]12` had an IC50 of 5.9 µM. This IC50 lies about 21-fold higher than the previous one.

For the compound `C[C@]12C=CC(=O)C=C1[C@@H](CCc1ccccc1)C[C@@H]1[C@@H]2CC[C@]2(C)C(=O)CC[C@@H]12`, 0.32 µM corresponded to half-maximal inhibition (IC50).

`C[C@]12CCC(=O)C(O)=C1C=C[C@@H]1[C@@H]2CC[C@]2(C)C(=O)CC[C@@H]12` showed a 50% inhibitory concentration (IC50) of 1 µM. This IC50 lies about 3.1-fold higher than the previous one.

On to `C[C@]12CCC(=O)C=C1[C@@H](CCCCCc1ccccc1)C[C@@H]1[C@@H]2CC[C@]2(C)C(=O)CC[C@@H]12`, for which it took 560 µM to reach half-maximal inhibition (IC50).

Consider `C[C@]12CCCC(=O)C1=CC(=O)[C@@H]1[C@@H]2CC[C@]2(C)C(=O)CC[C@@H]12`, for which the IC50 was 3.6 µM.

The compound `C[C@]12CCC(=O)C=C1[C@@H](Cc1ccccc1)C[C@@H]1[C@@H]2CC[C@]2(C)C(=O)CC[C@@H]12` had an IC50 of 0.661 µM. This IC50 is about 5.4-fold lower than that of the compound before.

Compound `C[C@]12CC[C@@H]3c4cc(F)c(O)cc4CC[C@H]3[C@@H]1CCC2=O` gave a half-maximal inhibitory concentration (IC50) of 11.6 µM.

In the case of `C[C@]12CCCCC1=CC[C@@H]1[C@@H]2CC[C@]2(C)C(=O)[C@H](Br)C[C@@H]12`, 55 µM corresponded to half-maximal inhibition (IC50).

`C[C@]12C=C(CCc3ccccc3)C(=O)C=C1CC[C@@H]1[C@@H]2CC[C@]2(C)C(=O)CC[C@@H]12` showed an IC50 of 2.57 µM.

Compound `C[C@]12CCC(=O)C=C1CC[C@@H]1[C@@H]2CC[C@]2(C)C(=O)[C@H](O)C[C@@H]12` showed a 50% inhibitory concentration (IC50) of 200 µM.

Consider `C[C@]12CC[C@@H]3C4CCC=CC4=CC(=O)[C@H]3[C@@H]1CCC2=O` (stereo partly drawn), for which the midpoint of inhibition, the IC50, lay at 33 µM.

Take `C[C@]12CC[C@H]3[C@@H](C=CC4=CC(=O)CC[C@@]43CCl)[C@@H]1CCC2=O`: the IC50 is 0.76 µM.

Compound `CCCCC[C@@H]1C[C@@H]2[C@H](CC[C@]3(C)C(=O)CC[C@@H]23)[C@@]2(C)C=CC(=O)C=C12` had an IC50 of 0.054 µM. This IC50 is about 14-fold lower than that of the compound before.

As to `C[C@]12CCC(=O)c3c1c(nn3C/C=C/c1ccccc1)C[C@@H]1[C@@H]2CC[C@]2(C)C(=O)CC[C@@H]12`, the 50% inhibitory concentration (IC50) was 0.899 µM. Compared with the last compound, the IC50 is about 17-fold higher.

As to `CCCCCCCC1=C[C@@H]2[C@H](CC[C@]3(C)C(=O)CC[C@@H]23)[C@@]2(C)CCC(=O)C=C12`, the IC50 was 0.43 µM.

`C[C@]12CC[C@@H]3c4cc(NC(=O)c5ccccn5)c(O)cc4CC[C@H]3[C@@H]1CCC2=O`: the half-inhibitory concentration (IC50) was 209 µM.

On to `CCCC[C@@H]1C[C@@H]2[C@H](CC[C@]3(C)C(=O)CC[C@@H]23)c2ccc(O)cc21`, for which the IC50 was 8.99 µM.

For `C[C@]12CCCC(=O)C1CC[C@@H]1[C@@H]2CC[C@]2(C)C(=O)CC[C@@H]12` (stereo partly drawn), it took 2.4 µM to reach half-maximal inhibition (IC50). Against the preceding compound, the IC50 is about 3.7-fold lower.

`C[C@]12CCC(=O)C=C1[C@@H](c1ccccc1)C[C@@H]1[C@@H]2CC[C@]2(C)C(=O)CC[C@@H]12` had a 50% inhibitory concentration (IC50) of 1.1 µM.

The compound `COc1cc2c(cc1O)CC[C@@H]1[C@@H]2CC[C@]2(C)[C@@H](O)CC[C@@H]12` [2-METHOXYESTRADIOL] had a concentration for half-maximal inhibition (IC50) of 20 µM.
